Data as given in patent US10780101B2, “Amide derivatives of squalamine for the treatment of infections” (VIRBAC, priority 2016, dated 2020).
≈ marks a conversion by molar mass, not a printed value.

Legend:
[1] = tested on: P. aeruginosa Human ATCC 27853; test: MIC determination, P. aeruginosa human ATCC 27853; assay type: cell-based; details: Pseudomonas aeruginosa, ATCC27853; Gram-negative; Mueller-Hinton medium, 24 h at 37° C.
Description: (§1) A negative control (2 mL of sterile culture medium)
(§2) A positive control (1940 μL of culture medium+40 μL of DMSO+20 μL of the bacterial suspension) from a thawed biological strain (the biological strains are stored at −80° C. in glycerol).
(§3) The tubes were incubated at 37° C. for 24 hours at 100 rpm.
(§4) The microorganisms were handled under a type L2 laboratory fume cupboard and, before any handling, a UV cycle was programmed and only sterile material was used. […] The chemical compounds to be tested were prepared in a DMSO/methanol mixture (50/50) at a concentration of 5 mg/mL.
(§5) After 24 hours of incubation, a measurement of the optical density was taken using a spectrophotometer at 600 nm, collecting 100 μL of the bacterial suspension diluted in 900 μL of the sterile culture medium. This test required the use of a 96-well plate and the required volume of the microbial suspension to be seeded was calculated for an OD corresponding to a value equal to 0.01 in each well. In this plate, the first line corresponded to the negative control (195 μL of sterile culture medium in each well), the second line corresponded to the positive control (seeded culture medium supplemented with 2% of DMSO), and the third line was loaded twice with bacterial suspension; 8 μL of test product were placed in each well. Thereafter, a 0.5 cascade dilution was performed from this line.
(§6) The first column served as inhibition control. A sterile filter was then placed on the microplate, allowing the passage of gases but not of contaminants. The microplate was incubated at 37° C. under a humid atmosphere for 24 hours.
(§7) NB: The medium used is Mueller-Hinton (MH) medium for bacteria. All the tests were performed in duplicate.
(§8) After incubation, the filter was replaced with a transparent film, and an OD reading was then taken in an iEMS plate spectrophotometer at 620 nm. Calculation of the minimum inhibitory concentration (MIC) was performed.

E. coli Human ATCC 28922 = test: MIC determination, E. coli human ATCC 28922; assay type: cell-based; details: Escherichia coli, ATCC28922; Gram-negative; Mueller-Hinton medium, 24 h at 37° C.
Description: as §1, §2, §3, §4, §5, §6, §7, §8

[2] = tested on: P. aeruginosa Animal (1051575); test: MIC determination, P. aeruginosa animal (1051575); assay type: cell-based; details: Pseudomonas aeruginosa; Gram-negative; Mueller-Hinton medium, 24 h at 37° C.
Description: as §1, §2, §3, §4, §5, §6, §7, §8

[3] = tested on: S. intermedius Animal (1051997); test: MIC determination, S. intermedius animal (1051997); assay type: cell-based; details: Staphylococcus intermedius; Gram-positive; Mueller-Hinton medium, 24 h at 37° C.
Description: as §1, §2, §3, §4, §5, §6, §7, §8

CHO-K1 cells = test: WST1 cytotoxicity test on CHO-K1 cells; assay type: cell-based, Chinese hamster; details: Cricetulus griseus, CHO-K1, 24 h, read-out: IC50 (μg/mL) CHO
Description: Test WST1 was used to measure the cytotoxic activity of the products. This is a colorimetric test which makes it possible to measure the viability and the degree of cell proliferation. It is based on cleavage of the colorless tetrazolium salts WST-1 (4-[3-(4-iodophenyl)-2-(4-nitrophenyl)-2H-5-tetrazolio]-1,3-benzene disulfonate) with mitochondrial dehydrogenases to the yellow-colored formazan derivative, which may be quantified by spectrophotometry at 420-480 nm.
The WST1 test was performed on Chinese hamster ovary cells. The CHO-K1 cells (ATCC, USA) are kept in culture in McCoy's 5A medium supplemented with 10% fetal calf serum, 2 mM of L-glutamine and a mixture of penicillin-streptomycin (100 U/ml: 10 μg/ml). The culture is incubated at 37° C. under an atmosphere enriched in CO2 (5%), and subcultured every two days.
The cells are transferred into 96-well plates (25000 cells/mL) in whole McCoy's 5A medium, and maintained for 24 hours at 37° C. under a humid atmosphere enriched in CO2 (5%). Increasing concentrations of test products are added to the wells in double tests and 8 growth controls containing the cells in the medium alone are included in each series of tests. After 24 hours at 37° C. (5% CO2), the culture medium is removed, the cells are rinsed in phosphate buffer (PBS) and 50 μL of PBS containing 10% of reagent WST1 are added to each well. After 20 minutes of incubation at 37° C., the results are read by spectrophotometry at 450 nm.
The results are expressed in dose-response relationships, modeled by nonlinear regression analysis using the TableCurve software. The 50% inhibitory concentration (IC50) represents the concentration of product that is capable of reducing the cell viability by 50%.

P. aeruginosa (1051575) = test: Potentiation of doxycycline activity (combination MIC); assay type: cell-based, Pseudomonas aeruginosa; details: in presence of doxycycline 2 μg/mL; 24 hours at 37° C.
E. coli Animal (1956) = test: MIC determination, E. coli animal (1956); assay type: cell-based; details: Escherichia coli; Gram-negative; Mueller-Hinton medium, 24 h at 37° C.
Description: as §1, §2, §3, §4, §5, §6, §7, §8

[4] = tested on: E. faecalis Human ATCC 29212; test: MIC determination, E. faecalis human ATCC 29212; assay type: cell-based; details: Enterococcus faecalis, ATCC29212; Gram-positive; Mueller-Hinton medium, 24 h at 37° C.
Description: as §1, §2, §3, §4, §5, §6, §7, §8

[5] = tested on: S. aureus Human ATCC 25923; test: MIC determination, S. aureus human ATCC 25923; assay type: cell-based; details: Staphylococcus aureus, ATCC25923; Gram-positive; Mueller-Hinton medium, 24 h at 37° C.
Description: as §1, §2, §3, §4, §5, §6, §7, §8

S. aureus Animal (340) = test: MIC determination, S. aureus animal (340); assay type: cell-based; details: Staphylococcus aureus; Gram-positive; Mueller-Hinton medium, 24 h at 37° C.
Description: as §1, §2, §3, §4, §5, §6, §7, §8

SMILES | MIC [1] [mg/L] | MIC (E. coli Human ATCC 28922) [mg/L] | MIC [2] [mg/L] | MIC [3] [mg/L] | IC50 (CHO-K1 cells) [µg/mL] | MIC - P. aeruginosa (1051575): content of compound of formula (I) to restore the doxycycline activity (at 2 μg/mL) (P. aeruginosa (1051575)) [mg/L] | MIC (E. coli Animal (1956)) [mg/L] | MIC [4] [mg/L] | MIC [5] [mg/L] | MIC (S. aureus Animal (340)) [mg/L]
CC(C)NC(=O)CC[C@@H](C)[C@H]1CCC2C3CCC4C[C@@H](NCCNCCNCCNCCNCCN)CC[C@]4(C)C3C[C@H](O)[C@@]21C (stereo partly drawn) [(20), 3β-(pentaethylenehexamine)-N-isopropyldeoxycholamide] | 32 (≈ 49.4 µM) | 8 (≈ 12.3 µM) | 32 (≈ 49.4 µM) | 4 (≈ 6.17 µM) | 18 (≈ 27.8 µM) | 4 | 16 (≈ 24.7 µM) | 8 (≈ 12.3 µM) | 8 (≈ 12.3 µM) | 8 (≈ 12.3 µM)
CC(C)NC(=O)CC[C@@H](C)[C@H]1CCC2C3C(CC[C@@]21C)[C@@]1(C)CC[C@H](NCCNCCNCCNCCNCCN)CC1C[C@H]3O (stereo partly drawn) [(22), 3β-(pentaethylenehexamine)-N-isopropylchenodeoxycholamide] | 130 (≈ 201 µM) | 32 (≈ 49.4 µM) | 65 (≈ 100 µM) | 2 (≈ 3.09 µM) | 120 (≈ 185 µM) | 4 | 32 (≈ 49.4 µM) | 32 (≈ 49.4 µM) | 8 (≈ 12.3 µM) | 8 (≈ 12.3 µM)
CC(C)NC(=O)CC[C@@H](C)[C@H]1CCC2C3CCC4C[C@@H](NCCNCCNCCNCCNCCN)CC[C@]4(C)C3CC[C@@]21C (stereo partly drawn) [(24)] | 128 (≈ 203 µM) | 32 (≈ 50.6 µM) | 128 (≈ 203 µM) | 4 (≈ 6.33 µM) | 35 (≈ 55.4 µM) | 8 | 64 (≈ 101 µM) | 16 (≈ 25.3 µM) | 8 (≈ 12.7 µM) | 8 (≈ 12.7 µM)
CC(C)NC(=O)CC[C@@H](C)[C@H]1CCC2C3C(C[C@H](O)[C@@]21C)[C@@]1(C)CC[C@H](NCCCN(C)CCCN)CC1C[C@H]3O (stereo partly drawn) [(26), 3β-(bis(3-aminopropyl)methylamine)-N-isopropylcholamide] | 112 (≈ 194 µM) | 28 (≈ 48.5 µM) | 56 (≈ 97.1 µM) | 14 (≈ 24.3 µM) | 80 (≈ 139 µM) | 4 | 56 (≈ 97.1 µM) | 56 (≈ 97.1 µM) | 28 (≈ 48.5 µM) | 28 (≈ 48.5 µM)
CC(C)NC(=O)CC[C@@H](C)[C@H]1CCC2C3C(CC[C@@]21C)[C@@]1(C)CC[C@H](NCCCN(C)CCCN)CC1C[C@@H]3O (stereo partly drawn) [(28), 3β-(bis(3-aminopropyl)methylamine)-N-isopropylursodeoxycholamide] | 112 (≈ 200 µM) | 56 (≈ 99.8 µM) | 112 (≈ 200 µM) | 14 (≈ 25 µM) | 28 (≈ 49.9 µM) | 7 | 112 (≈ 200 µM) | 56 (≈ 99.8 µM) | 28 (≈ 49.9 µM) | 28 (≈ 49.9 µM)
CC(C)NC(=O)CC[C@@H](C)[C@H]1CCC2C3CCC4C[C@@H](NCCCN(C)CCCN)CC[C@]4(C)C3CC[C@@]21C (stereo partly drawn) [(29), 3β-(bis(3-aminopropyl)methylamine)-N-isopropyllithocholamide] | 112 (≈ 206 µM) | 28 (≈ 51.4 µM) | 112 (≈ 206 µM) | 7 (≈ 12.8 µM) | 6 (≈ 11 µM) | 7 | 28 (≈ 51.4 µM) | 28 (≈ 51.4 µM) | 14 (≈ 25.7 µM) | 14 (≈ 25.7 µM)
